Experimental data taken from patent US11897898B2, “Pyridine macrocycle compounds as ASK1 inhibiting agents” (BIOGEN MA INC., priority 2018, dated 2024).

What was measured:
ASK1/MAP3K5 = biological target: T1, ASK1/MAP3K5 (Homo sapiens, UniProt Q99683); experiment: ASK1 enzyme assay (ASK1/MAP3K5 assay by Reaction Biology Corp., 33P-ATP filter-binding); format: biochemical; settings: 20 μM myelin basic protein and 10 μM ATP
T1 construct: purchased Reaction Biology Corp. (Malvern, Pa.)
T1 sequence (Q99683 1-1374): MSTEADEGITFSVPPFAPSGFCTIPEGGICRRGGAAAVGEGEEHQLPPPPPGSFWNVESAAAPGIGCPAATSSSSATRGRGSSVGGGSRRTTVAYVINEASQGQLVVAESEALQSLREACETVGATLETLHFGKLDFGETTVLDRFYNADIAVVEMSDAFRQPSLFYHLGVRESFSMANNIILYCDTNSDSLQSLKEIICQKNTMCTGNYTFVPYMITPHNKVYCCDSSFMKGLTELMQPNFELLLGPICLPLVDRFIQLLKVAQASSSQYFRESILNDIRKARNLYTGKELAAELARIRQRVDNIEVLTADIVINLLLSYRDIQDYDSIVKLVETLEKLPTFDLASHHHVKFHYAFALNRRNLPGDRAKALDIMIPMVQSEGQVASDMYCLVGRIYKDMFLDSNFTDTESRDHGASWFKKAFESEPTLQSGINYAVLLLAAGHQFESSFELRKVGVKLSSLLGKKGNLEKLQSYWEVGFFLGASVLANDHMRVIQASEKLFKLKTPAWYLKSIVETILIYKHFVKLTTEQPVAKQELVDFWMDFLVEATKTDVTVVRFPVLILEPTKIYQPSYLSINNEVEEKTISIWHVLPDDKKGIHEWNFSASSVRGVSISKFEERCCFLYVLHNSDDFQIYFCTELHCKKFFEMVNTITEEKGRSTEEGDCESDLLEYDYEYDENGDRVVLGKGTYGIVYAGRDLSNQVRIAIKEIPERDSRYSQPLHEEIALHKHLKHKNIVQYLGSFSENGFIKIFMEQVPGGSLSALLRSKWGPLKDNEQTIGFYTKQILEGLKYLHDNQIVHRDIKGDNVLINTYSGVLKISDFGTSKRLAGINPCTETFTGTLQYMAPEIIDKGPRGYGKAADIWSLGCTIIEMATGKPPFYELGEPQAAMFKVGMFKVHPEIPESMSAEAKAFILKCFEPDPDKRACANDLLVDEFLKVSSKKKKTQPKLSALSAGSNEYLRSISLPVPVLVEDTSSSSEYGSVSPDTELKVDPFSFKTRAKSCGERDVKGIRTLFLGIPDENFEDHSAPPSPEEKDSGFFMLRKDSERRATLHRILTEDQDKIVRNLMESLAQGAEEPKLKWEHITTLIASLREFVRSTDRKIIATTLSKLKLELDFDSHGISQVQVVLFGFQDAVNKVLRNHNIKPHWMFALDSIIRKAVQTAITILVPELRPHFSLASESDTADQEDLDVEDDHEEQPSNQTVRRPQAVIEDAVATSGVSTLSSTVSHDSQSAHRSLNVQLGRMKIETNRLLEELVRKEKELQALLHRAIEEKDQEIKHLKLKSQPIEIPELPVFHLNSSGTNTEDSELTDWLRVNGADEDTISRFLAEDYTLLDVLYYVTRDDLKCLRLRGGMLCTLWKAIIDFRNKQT
Method: The protein kinase inhibitory activity of the compounds described herein were tested using the ASK1/MAP3K5 assay by Reaction Biology Corp. (Malvern, Pa.). The assay procedure follows (and is also available on the Reaction Biology Corp. website). • Base Reaction Buffer: 20 mM Hepes (pH 7.5), 10 mM MgCl2, 1 mM EGTA, • 0.02% Brij35, 0.02 mg/mL BSA, 0.1 mM Na3VO4, 2 mM DTT, 1% DMSO; • Substrate: 20 μM of myelin basic protein (MBP) and 10 μM ATP; • Protein kinase: ASK1/MAP3K5. • Reaction Procedure: • 1. Prepare indicated substrate in freshly prepared Base Reaction Buffer. • 2. Deliver any required cofactors to the substrate solution. • 3. Deliver indicated kinase into the substrate solution and gently mix. • 4. Deliver compounds in DMSO into the kinase reaction mixture by Acoustic; technology (Echo550; nanoliter range), incubate for 20 minutes at room temperature. • 5. Deliver ^33P-ATP (specific activity 10 μCi/μL) into the reaction mixture to initiate the reaction. • 6. Incubate kinase reaction for 2 hours at room temperature. • 7. Reactions are spotted onto P81 ion exchange paper. • 8. Detect kinase activity by filter-binding method.

[1] = biological target: T2, ASK1 T838 auto phosphorylation (Homo sapiens, UniProt Q99683); experiment: ASK1 (AUTO PHOS T838) assay in HEK-293T cells, MSD format; format: cell-based; settings: HEK-293T cells transfected with ASK1-V5, 1 hr compound incubation
T2 construct: ASK1-V5 tagged full length plasmid; expressed in transfected cells; host or cells: HEK-293T
T2 sequence (Q99683 1-1374): T1 sequence (Q99683 1-1374)
Method: ASK1 T838 auto phosphorylation was measured in HEK-293T cells using MSD assay format. HEK 293T cells were seeded in 15 cm plates at a density of 18 million cells and 20 mL DMEM with 10% FBS, Pen/Strep media. The plates were incubated at 37° C. overnight. Media on plates was changed to OPTI-MEM, serum free media and cells were transfected with 9 μg of ASK1-V5 tagged full length plasmid using Lipofectamine 2000 (Invitrogen) and the plates were incubated at 37° C. overnight. Cells were trypsinized, counted on Nexcellometer and plated into 96 well tissue culture plates with 100,000 cells/well and 200 μL media. Cells were incubated for 4 hr at 37° C. then ASK1 compounds were added using a HP 300e. Compounds were tested at 20 μM with 3 fold, 10 point dilution points then incubated for 1 hr at 37° C. A lysis buffer (Cell Signaling) was prepared with protease and phosphatase inhibitor and maintained at 4° C. until use. Media from cells was discarded and 120 μL of cold lysis buffer was added to the cells, the plate was shaken 4° C. for 1 hr. Lysate was mixed using Apricot liquid handler; aspirating up and down 16 times at high speed using 50 μL volume. 50 μL of cell lysates were transferred to a pre-coated MSD plates containing mouse anti-V5 antibody (1:500 dilution) and washed 3× with MSD wash buffer (TBST) and blocked with a 3% BSA solution. Plates were then incubated on a plate shaker overnight at 4° C. Plates were washed 3× with MSD wash buffer and 50 μL of rabbit anti-pASK1 T838 antibody was added to the wells and incubated for 2 hr at room temperature on a plate shaker. Plates were then washed and 50 μL of goat anti-rabbit sulfa-tag (1:500 dilution) was added to wells, and incubated for 1 hr at room temperature on a plate shaker. Plates were washed 3× and 150 μL of 2×MSD Read buffer was added to wells. Plates were immediately read on a MSD Instrument Reader where chemoluminecense signal was measured. Data was analyzed using Graph Pad or Genedata, the data was normalized and plotted, % activity versus log of compound concentration. The IC50 values were obtained from a 4 parameter fit.

`C[C@@H]1CN(c2cnc3c(c2)C(=O)Nc2cccc(n2)-c2nncn2[C@@H](C)CCCO3)CCN1C` (single isomer, unassigned) [Compound 12] showed an IC50 (ASK1/MAP3K5; class symbols) of at most 0.1 µM and an IC50 ([1]; class symbols) of at most 0.1 µM.
With `C[C@@H]1CCCOc2ncc(C(F)(F)F)cc2C(=O)Nc2cccc(n2)-c2nncn21` (single isomer, unassigned) [Compound 42] the IC50 (ASK1/MAP3K5) was at least 10 µM and the IC50 [1] was at least 10 µM.
For `Cc1cn(-c2cnc3c(c2)C(=O)Nc2cccc(n2)-c2nncn2[C@@H](C)CCCO3)cn1` (single isomer, unassigned) [Compound 30], the IC50 (ASK1/MAP3K5; class symbols) was at most 0.1 µM and the IC50 ([1]; class symbols) was at most 0.1 µM.
`C[C@H]1CCCOc2ncc(C3COC3)cc2C(=O)Nc2cccc(n2)-c2nncn21` [Compound 45, (S)-10-Methyl-5^5-(oxetan-3-yl)-1^4H-6-oxa-3-aza-2(2,6),5(3,2)-dipyridina-1(3,4)-triazolacyclodecaphan-4-one] gave an IC50 (ASK1/MAP3K5; class symbols) of at most 0.1 µM and an IC50 ([1]; class symbols) of at most 0.1 µM.
`C[C@H]1CCCOc2ncc(N3CC4CC(C3)O4)cc2C(=O)Nc2cccc(n2)-c2nncn21` [Compound 8, (10S)-5^5-(6-Oxa-3-azabicyclo[3.1.1]heptan-3-yl)-10-methyl-1^4H-6-oxa-3-aza-2(2,6),5(3,2)-dipyridina-1(3,4)-triazolacyclodecaphan-4-one] gave an IC50 (ASK1/MAP3K5; class symbols) of at most 0.1 µM and an IC50 ([1]; class symbols) of at most 0.1 µM.
`C[C@H]1CCCOc2ncc(C3=CCN(C)CC3)cc2C(=O)Nc2cccc(n2)-c2nncn21` [Compound 15, (S)-10-Methyl-5^5-(1-methyl-1,2,3,6-tetrahydropyridin-4-yl)-1^4H-6-oxa-3-aza-2(2,6),5(3,2)-dipyridina-1(3,4)-triazolacyclodecaphan-4-one] gave an IC50 (ASK1/MAP3K5; class symbols) of at most 0.1 µM and an IC50 ([1]; class symbols) of at most 0.1 µM.
`Cc1cncn1-c1cnc2c(c1)C(=O)Nc1cccc(n1)-c1nncn1[C@@H](C)CCCO2` (single isomer, unassigned) [Compound 31] showed an IC50 (ASK1/MAP3K5; class symbols) of at most 0.1 µM and an IC50 ([1]; class symbols) of 0.1 to 1 µM.
`C[C@H]1CCCOc2ncc(C(C)(C)O)cc2C(=O)Nc2cccc(n2)-c2nncn21` [Compound 39, (S)-5^5-(2-Hydroxypropan-2-yl)-10-methyl-1^4H-6-oxa-3-aza-2(2,6),5(3,2)-dipyridina-1(3,4)triazolacyclodecaphan-4-one] gave an IC50 (ASK1/MAP3K5; class symbols) of at most 0.1 µM and an IC50 ([1]; class symbols) of 0.1 to 1 µM.
Work on `C[C@H]1CCCOc2ncc(-c3ccnnc3)cc2C(=O)Nc2cccc(n2)-c2nncn21` [Compound 23, (S)-10-Methyl-5^5-(pyridazin-4-yl)-1^4H-6-oxa-3-aza-2(2,6),5(3,2)-dipyridina-1(3,4)-triazolacyclodecaphan-4-one] yielded an IC50 (ASK1/MAP3K5; class symbols) of at most 0.1 µM and an IC50 ([1]; class symbols) of at most 0.1 µM.
In the case of `COc1ccc(-c2cnc3c(c2)C(=O)Nc2cccc(n2)-c2nncn2[C@@H](C)CCCO3)cn1` [Compound 20, (S)-5^5-(6-Methoxypyridin-3-yl)-10-methyl-1^4H-6-oxa-3-aza-2(2,6),5(3,2)-dipyridina-1(3,4)-triazolacyclodecaphan-4-one], the IC50 (ASK1/MAP3K5; class symbols) is reported as at most 0.1 µM and the IC50 ([1]; class symbols) is reported as at most 0.1 µM.
Compound `C[C@@H]1CCCOc2ncc(C#N)cc2C(=O)Nc2cccc(n2)-c2nncn21` [Compound 37, (R)-10-Methyl-4-oxo-1^4H-6-oxa-3-aza-2(2,6),5(3,2)-dipyridina-1(3,4)-triazolacyclodecaphane-5^5-carbonitrile] has an IC50 (ASK1/MAP3K5; class symbols) of 1 to 10 µM and an IC50 [1] of at least 10 µM.
`C[C@@H]1CCCOc2ncc(-c3cnn(CCN(C)C)c3)cc2C(=O)Nc2cccc(n2)-c2nncn21` [Compound 24, (R)-5^5-(1-(2-(Dimethylamino)ethyl)-1H-pyrazol-4-yl)-10-methyl-1^4H-6-oxa-3-aza-2(2,6),5(3,2)-dipyridina-1(3,4)-triazolacyclodecaphan-4-one] was tested, and the IC50 (ASK1/MAP3K5; class symbols) was 1 to 10 µM and the IC50 ([1]; class symbols) was 1 to 10 µM.
For `C[C@H]1CCCOc2ncc(N3CC(F)(F)C3)cc2C(=O)Nc2cccc(n2)-c2nncn21` [Compound 9, (S)-5^5-(3,3-Difluoroazetidin-1-yl)-10-methyl-1^4H-6-oxa-3-aza-2(2,6),5(3,2)-dipyridina-1(3,4)-triazolacyclodecaphan-4-one], the IC50 (ASK1/MAP3K5; class symbols) was at most 0.1 µM and the IC50 ([1]; class symbols) was at most 0.1 µM.
With `C[C@H]1CCCOc2ncc(C3CN(C)C3)cc2C(=O)Nc2cccc(n2)-c2nncn21` [Compound 47, (S)-10-Methyl-5^5-(1-methylazetidin-3-yl)-1^4H-6-oxa-3-aza-2(2,6),5(3,2)-dipyridina-1(3,4)-triazolacyclodecaphan-4-one] the IC50 (ASK1/MAP3K5; class symbols) was at most 0.1 µM and the IC50 ([1]; class symbols) was 0.1 to 1 µM.
`C[C@H]1CCCOc2ncc(-c3cncn3C)cc2C(=O)Nc2cccc(n2)-c2nncn21` [Compound 28, (S)-10-Methyl-5^5-(1-methyl-1H-imidazol-5-yl)-1^4H-6-oxa-3-aza-2(2,6),5(3,2)-dipyridina-1(3,4)-triazolacyclodecaphan-4-one] showed an IC50 (ASK1/MAP3K5; class symbols) of at most 0.1 µM and an IC50 ([1]; class symbols) of at most 0.1 µM.
In the case of `C[C@H]1CN(c2cnc3c(c2)C(=O)Nc2cccc(n2)-c2nncn2[C@@H](C)CCCO3)CCN1C` (single isomer, unassigned) [Compound 13], the IC50 (ASK1/MAP3K5; class symbols) is reported as at most 0.1 µM and the IC50 ([1]; class symbols) is reported as 0.1 to 1 µM.
With `C[C@H]1CCCOc2ncc(-n3cncc3C3CC3)cc2C(=O)Nc2cccc(n2)-c2nncn21` (single isomer, unassigned) [Compound 33] the IC50 (ASK1/MAP3K5; class symbols) was at most 0.1 µM and the IC50 ([1]; class symbols) was 0.1 to 1 µM.
`C[C@H]1CCCOc2ncc(C3CN(C(=O)OC(C)(C)C)C3)cc2C(=O)Nc2cccc(n2)-c2nncn21` [Compound 46, tert-Butyl (S)-3-(10-methyl-4-oxo-1^4H-6-oxa-3-aza-2(2,6),5(3,2)-dipyridina-1(3,4)-triazolacyclodecaphane-5^5-yl)azetidine-1-carboxylate] was tested, and the IC50 (ASK1/MAP3K5; class symbols) was at most 0.1 µM and the IC50 ([1]; class symbols) was at most 0.1 µM.
